Measurements reported in ChEMBL document CHEMBL5523723, “G Protein-Coupled Estrogen Receptor-Mediated Anti-Inflammatory and Mucosal Healing Activity of a Trimethylpyridinol Analogue in Inflammatory Bowel Disease” (J Med Chem, 2024).

Experiments:
CYP3A4 = CYP3A4 (Homo sapiens, UniProt P08684); assay: Inhibition of CYP3A4 in human liver microsomes assessed as remaining activity at 10 uM using midazolam as substrate preincubated for 5 mins followed by NADPH generating system addition for 15 mins by LC-MS/MS method relative to control; assay type: ADME, Microsome; details: probe midazolam, time 20 min, read-out: Activity
CYP3A4, sequence (P08684 whole entry): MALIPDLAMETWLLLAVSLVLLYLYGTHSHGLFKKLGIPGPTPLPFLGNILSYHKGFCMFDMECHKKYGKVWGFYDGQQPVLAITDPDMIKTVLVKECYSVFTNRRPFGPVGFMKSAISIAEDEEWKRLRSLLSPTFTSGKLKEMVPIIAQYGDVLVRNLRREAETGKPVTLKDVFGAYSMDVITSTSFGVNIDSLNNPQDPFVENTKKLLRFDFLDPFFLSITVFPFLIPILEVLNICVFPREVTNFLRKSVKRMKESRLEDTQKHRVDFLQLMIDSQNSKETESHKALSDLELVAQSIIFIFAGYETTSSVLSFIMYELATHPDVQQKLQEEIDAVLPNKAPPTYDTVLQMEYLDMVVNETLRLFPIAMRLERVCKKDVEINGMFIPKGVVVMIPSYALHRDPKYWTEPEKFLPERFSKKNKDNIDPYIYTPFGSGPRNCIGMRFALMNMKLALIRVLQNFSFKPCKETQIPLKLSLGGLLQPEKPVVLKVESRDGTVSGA

[1] = Acute toxicity in ICR mouse assessed as change in water intake at 30 to 300 mg/kg, po measured every other day for 14 days; assay type: organism-based; details: in vivo, 336 h, dose 30-300 mg/kg, time 14 day
[2] = Mean residence time in Sprague-Dawley rat at 1 mg/kg, po by LC-MS analysis; assay type: ADME, organism-based; details: in vivo
[3] = Cmax in Sprague-Dawley rat at 1 mg/kg, iv by LC-MS analysis; assay type: ADME, organism-based; details: in vivo
[4] = Acute toxicity in ICR mouse assessed as change in histology of kidney at 30 to 300 mg/kg, po measured every other day for 14 days by H and E staining based assay; assay type: organism-based; details: in vivo, 336 h, dose 30-300 mg/kg, time 14 day
[5] = AUC(0 to t) in Sprague-Dawley rat at 5 mg/kg, po by LC-MS analysis; assay type: ADME, organism-based; details: in vivo
[6] = Half life in Sprague-Dawley rat at 1 mg/kg, po by LC-MS analysis; assay type: ADME, organism-based; details: in vivo
[7] = target: T1, G-protein coupled estrogen receptor 1 (Homo sapiens, UniProt Q99527); assay: Inhibition of GPER1 (unknown origin)
T1 sequence (Q99527 whole entry): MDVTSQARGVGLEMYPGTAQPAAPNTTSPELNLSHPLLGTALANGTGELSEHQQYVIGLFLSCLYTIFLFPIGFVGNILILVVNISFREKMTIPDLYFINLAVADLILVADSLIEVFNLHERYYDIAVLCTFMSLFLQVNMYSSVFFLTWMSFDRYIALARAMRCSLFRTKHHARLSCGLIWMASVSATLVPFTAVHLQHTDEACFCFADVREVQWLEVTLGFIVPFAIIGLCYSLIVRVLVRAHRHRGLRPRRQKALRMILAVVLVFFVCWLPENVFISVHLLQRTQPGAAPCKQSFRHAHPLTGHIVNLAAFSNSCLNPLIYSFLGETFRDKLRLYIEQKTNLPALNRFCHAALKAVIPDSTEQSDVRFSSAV

[8] = Oral bioavailability in Sprague-Dawley rat at 5 mg/kg by LC-MS analysis; assay type: ADME, organism-based; details: in vivo
[9] = Acute toxicity in ICR mouse assessed as change in kidney weight at 30 to 300 mg/kg, po measured every other day for 14 days […]; assay type: organism-based; details: in vivo, 336 h, dose 30-300 mg/kg, time 14 day
CYP2D6 = CYP2D6 (Homo sapiens, UniProt P10635); assay: Inhibition of CYP2D6 in human liver microsomes assessed as remaining activity at 10 uM using dextromethorphan as substrate preincubated for 5 mins followed by NADPH generating system addition for 15 mins by LC-MS/MS method relative to control; assay type: ADME, Microsome; details: probe dextromethorphan, time 20 min, read-out: Activity
CYP2D6, sequence (P10635 whole entry): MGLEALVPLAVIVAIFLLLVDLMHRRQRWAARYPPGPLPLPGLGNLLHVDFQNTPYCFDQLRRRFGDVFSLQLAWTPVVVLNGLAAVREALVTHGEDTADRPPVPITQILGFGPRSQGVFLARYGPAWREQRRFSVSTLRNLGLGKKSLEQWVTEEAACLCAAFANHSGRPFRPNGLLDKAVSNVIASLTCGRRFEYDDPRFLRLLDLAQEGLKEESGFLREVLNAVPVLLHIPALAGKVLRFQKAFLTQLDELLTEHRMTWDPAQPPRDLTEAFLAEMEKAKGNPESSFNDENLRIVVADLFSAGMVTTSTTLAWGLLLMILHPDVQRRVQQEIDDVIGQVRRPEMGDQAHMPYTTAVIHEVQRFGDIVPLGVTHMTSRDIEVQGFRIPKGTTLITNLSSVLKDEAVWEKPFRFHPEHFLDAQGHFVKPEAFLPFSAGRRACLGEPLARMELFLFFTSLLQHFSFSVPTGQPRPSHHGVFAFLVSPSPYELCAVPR

CYP1A2 = target: T2, CYP1A2 (Homo sapiens, UniProt P05177); assay: Inhibition of CYP1A2 in human liver microsomes assessed as remaining activity at 10 uM using phenacetin as substrate preincubated for 5 mins followed by NADPH generating system addition for 15 mins by LC-MS/MS method relative to control; assay type: ADME, Microsome; details: probe phenacetin, time 20 min, read-out: Activity
T2 sequence (P05177 whole entry): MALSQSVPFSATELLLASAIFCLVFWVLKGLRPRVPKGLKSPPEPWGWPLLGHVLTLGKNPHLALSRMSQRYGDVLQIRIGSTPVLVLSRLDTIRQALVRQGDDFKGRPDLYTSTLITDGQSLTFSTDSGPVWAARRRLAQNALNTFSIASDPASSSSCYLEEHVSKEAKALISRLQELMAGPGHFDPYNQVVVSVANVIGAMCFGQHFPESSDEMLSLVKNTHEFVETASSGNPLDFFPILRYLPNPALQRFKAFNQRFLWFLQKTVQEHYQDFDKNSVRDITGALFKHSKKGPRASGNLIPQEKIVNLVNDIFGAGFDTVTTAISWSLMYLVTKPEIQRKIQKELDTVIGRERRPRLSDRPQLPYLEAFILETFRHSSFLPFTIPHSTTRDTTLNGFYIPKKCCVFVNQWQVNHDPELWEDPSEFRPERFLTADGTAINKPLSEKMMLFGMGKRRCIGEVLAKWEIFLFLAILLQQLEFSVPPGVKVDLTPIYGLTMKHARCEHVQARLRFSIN

[10] = target: T1, G-protein coupled estrogen receptor 1; assay: Binding affinity to human GPER by SPR method
[11] = AUC(0 to t) in Sprague-Dawley rat at 1 mg/kg, po by LC-MS analysis; assay type: ADME, organism-based; details: in vivo
[12] = Acute toxicity in ICR mouse assessed as digestive disorder at 30 to 300 mg/kg, po measured every other day for 14 days; assay type: organism-based; details: in vivo, 336 h, dose 30-300 mg/kg, time 14 day
HT-29 [13] = assay: Induction of apoptosis in human HT-29 cells assessed as viable cells at 10 uM incubated for 24 hrs by Annexin V FITC/PI staining based flow cytometry analysis ( Rvb = 99 +/- 0.1%); assay type: functional; details: read-out: Activity
[14] = Mean residence time in Sprague-Dawley rat at 5 mg/kg, po by LC-MS analysis; assay type: ADME, organism-based; details: in vivo
HT-29 [15] = assay: Induction of apoptosis in human HT-29 cells assessed as viable cells at 5 uM incubated for 24 hrs by Annexin V FITC/PI staining based flow cytometry analysis ( Rvb = 99 +/- 0.1%); assay type: functional; details: read-out: Activity
[16] = Volume of distribution at steady state in Sprague-Dawley rat at 1 mg/kg, iv by LC-MS analysis; assay type: ADME, organism-based; details: in vivo, read-out: Vdss
[17] = target: Prostaglandin G/H synthase 1 (Homo sapiens, UniProt P23219); assay: Inhibition of COX-1 (unknown origin)
Prostaglandin G/H synthase 1, sequence (P23219 whole entry): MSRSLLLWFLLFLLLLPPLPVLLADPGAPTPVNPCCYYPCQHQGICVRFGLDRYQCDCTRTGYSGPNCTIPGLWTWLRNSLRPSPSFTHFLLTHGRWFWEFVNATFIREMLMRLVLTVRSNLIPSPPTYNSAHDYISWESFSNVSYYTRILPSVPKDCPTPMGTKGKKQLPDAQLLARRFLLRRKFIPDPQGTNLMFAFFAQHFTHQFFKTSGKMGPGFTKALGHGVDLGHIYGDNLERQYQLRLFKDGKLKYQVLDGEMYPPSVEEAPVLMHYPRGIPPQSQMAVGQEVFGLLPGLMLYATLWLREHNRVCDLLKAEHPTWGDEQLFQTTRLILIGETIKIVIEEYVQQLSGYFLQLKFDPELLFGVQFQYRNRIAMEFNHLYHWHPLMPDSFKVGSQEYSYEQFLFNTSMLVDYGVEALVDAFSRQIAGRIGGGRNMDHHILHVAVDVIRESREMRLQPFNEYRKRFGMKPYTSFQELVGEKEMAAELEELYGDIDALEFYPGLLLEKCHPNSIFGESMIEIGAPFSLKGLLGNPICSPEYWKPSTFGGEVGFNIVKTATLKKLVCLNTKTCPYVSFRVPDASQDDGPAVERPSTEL

[18] = Acute toxicity in ICR mouse assessed as change in heart weight at 30 to 300 mg/kg, po measured every other day for 14 days […]; assay type: organism-based; details: in vivo, 336 h, dose 30-300 mg/kg, time 14 day
HT-29 [19] = assay: Induction of apoptosis in human HT-29 cells assessed as viable cells at 1 uM incubated for 24 hrs by Annexin V FITC/PI staining based flow cytometry analysis ( Rvb = 99 +/- 0.1%); assay type: functional; details: read-out: Activity
U-937 = assay: Induction of apoptosis in human U-937 cells assessed as viable cells at 5 uM incubated for 24 hrs by Annexin V FITC/PI staining based flow cytometry analysis ( Rvb = 95.2 +/- 0.4%); assay type: functional; details: read-out: Activity
[20] = Acute toxicity in ICR mouse assessed as change in liver weight at 30 to 300 mg/kg, po measured every other day for 14 days […]; assay type: organism-based; details: in vivo, 336 h, dose 30-300 mg/kg, time 14 day
[21] = Acute toxicity in ICR mouse assessed as weight loss at 30 to 300 mg/kg, po measured every other day for 14 days; assay type: organism-based; details: in vivo, 336 h, dose 30-300 mg/kg, time 14 day
[22] = Half life in Sprague-Dawley rat at 5 mg/kg, po by LC-MS analysis; assay type: ADME, organism-based; details: in vivo

For Cc1nc(NC(=O)c2sc3cc(F)ccc3c2Cl)c(C)c(C)c1O, the activity at 0.25 h, 10 µM (CYP3A4) was 89.9%, the Activity [1] was “Non-Toxic” and the MRT [2] was 5.7 h. For the same compound, the Cmax [3] was 1880 ng/mL, the Activity [4] was “Non-Toxic” and the AUCt [5] was 1849.2 ng·h/mL. It also gave a half-life [6] of 3.8 h, an EC50 [7] of 0.48 µM and an F [8] of 36.7%. For the same compound, the Activity [9] was “Non-Toxic”, the activity at 0.25 h, 10 µM (CYP2D6) was 86% and the activity at 0.25 h, 10 µM (CYP1A2) was 89.2%. For the same compound, the Kd [10] was 0.0237 µM, the AUCt [11] was 246.3 ng·h/mL and the Activity [12] was “Non-Toxic”. The viability at 10 µM (HT-29 [13]) was 98.6%, the MRT [14] was 5 h and the viability at 5 µM (HT-29 [15]) was 98.7%. The Vd [16] was 1.3 L/kg, the IC50 [17] was 0.8 µM and the Activity [18] was “Non-Toxic”. The viability at 1 µM (HT-29 [19]) was 98.8%, the viability at 5 µM (U-937) was 95.2% and the Activity [20] was “Non-Toxic”. The Activity [21] was “Non-Toxic” and the half-life [22] was 3.3 h.
